Measured values from patent publication US4322555A, “Nonaprenylamine derivatives” (priority 1980, dated 1982).
Where a name gives a salt, the structure may show the parent alone. Read-outs that look alike come from different tables or passages of the source.

Key:
[1] = system: vaccinia virus (DIE strain); assay type: in vivo, vaccinia virus (DIE strain) in ICR female mice; conditions: 50 mg/kg i.p. on the day just before inoculation; ICR female mice; lesions counted 8th day
serum interferon = system: serum interferon; set-up: species or system mice; conditions: mouse, in vivo
[2] = Toxicity (acute toxicity, 50% lethal dose); conditions: mouse, in vivo, ddY male mice
[3] = ip, read-out: 50% Lethal dose, intraperitoneally administered
[4] = iv, read-out: 50% Lethal dose, intravenously administered

Row | Structure (SMILES) | Prevention from vaccinia infection (Inhibition of tail lesion) [1] [%] | Serum interferon (Plaque inhibition) (serum interferon) [%] | LD50 [2, 3] [mg/kg] | LD50 [2, 4] [mg/kg]
1 | CC(C)=CCCC(C)=CCCC(C)=CCCC(C)=CCCC(C)=CCCC(C)=CCCC(C)=CCCC(C)=CCCC(C)=CCN(C)Cc1ccccc1 [N-methyl-N-benzylsolanesylamine hydrochloride] | 17.5 | 44.5 | > 500 | 550
2 | CC(C)=CCCC(C)=CCCC(C)=CCCC(C)=CCCC(C)=CCCC(C)=CCCC(C)=CCCC(C)=CCCC(C)=CCNCCc1ccccc1 [N-phenethylsolanesylamine hydrochloride] | 30.8 | 19.1 | > 500 | 250
3 | CC(C)=CCCC(C)=CCCC(C)=CCCC(C)=CCCC(C)=CCCC(C)=CCCC(C)=CCCC(C)=CCCC(C)=CCN(C)c1ccccc1 [N-methyl-N-phenylsolanesylamine] | 26.8 | 24.1 | > 500 | > 500
4 | CC(C)=CCCC(C)=CCCC(C)=CCCC(C)=CCCC(C)=CCCC(C)=CCCC(C)=CCCC(C)=CCCC(C)=CCNCc1ccccc1 [N-benzylsolanesylamine hydrochloride] | 74.7 | 31.5 |  | 152
